Results from patent publication US20160166581A1 (priority 2014, published 2016).
Values joined by “and” are separate entries in the source; they are usually repeats but may differ in a detail not shown here. Equal entries are not always repeated.

How the values were obtained:
feline diabetic subjects = assay: Glucose Tolerance Test/Felines (ipGTT); type: in vivo, cat
Protocol: Glucose Tolerance Test/Felines. Four feline diabetic subjects (male, age 5-7 years) with newly diagnosed DM (diabetes). […] These 4 cats are subjected to intraperitoneal injection of 2 grams/kg glucose. (ipGTT). Blood glucose levels are obtained via Cephalic iv. catheter at 30 and 60 minutes.

[1] = system: obese domestic cats with diabetes
Protocol: Five obese domestic cats with diabetes (average weight 14.2 lbs.) are on glargine insulin for glycemic control. […] All cats are being treated with glargine insulin in bid dosing schedule. […] Over a 14 day period morning blood glucose levels (prior to feeding) are recorded.

[2] = system: cats with stage 3 and 4 renal disease; assay: Feline renal disease, serum creatinine pre and post treatment; type: in vivo, cat; set-up: Serum creatinine post treatment: unit not given here
From the text: This example measures feline renal disease. […] The average weight of the domestic cats was approximately 6 lbs.

[3] = system: horses with black walnut extract induced laminitis; assay: Black walnut extract induced laminitis, treatment with donepezil; type: in vivo, horse
Protocol: Three domestic horses, average age 26, are corralled in close proximity to a Black Walnut tree with exposed roots and debris from black walnuts shells, including leaves. The weight of the horses is 1100-1200 lbs. Horses are quartered in a 24×36 square foot area with a Black Walnut tree within the confined area.
The horses are evaluated continuously after 6 hours of exposure to remove them from exposure to the black walnut extract once symptoms occur.
Subsequent doses are 50 mg on Day #3-7. Horses are given Timothy hay and water, but no other medicinal or mechanical interventions.
The same 3 horses are used in similar exposure design, as in the original experiment to induce laminitis. […] The dose is tapered to 50 mg orally on Days #3 through #7.

[4] = 4 cats, 1.25 mg daily for 4 weeks
[5] = individual cats #1-#4, donepezil 1.25 mg daily for 4 weeks
[6] = individual cats #1-#4, donepezil 1.25 mg daily for 4 weeks, 2 gm/kg glucose ip
[7] = after repeat exposure and treatment
[8] = first exposure, 3 horses, 100 mg orally Day 1-2, 50 mg Day 3-7
[9] = repeat exposure, same 3 horses, 100 mg Day 1-2, 50 mg Days 3-7

Structure (SMILES): COc1cc2c(cc1OC)C(=O)C(CC1CCN(Cc3ccccc3)CC1)C2 (centres unmarked) [donepezil]
- 30 minutes blood glucose levels on average less than before treatment (feline diabetic subjects; [4]): approximately 24%
- 60 minute GTT on average less than without treatment (feline diabetic subjects; [4]): 42%
- Glucose tolerance (in words) (feline diabetic subjects; 4 weeks prior to ipGTT testing, versus same subjects before treatment): improved glucose tolerance
- Decrease of 30 minute ipGTT blood glucose versus before treatment (feline diabetic subjects; [5]): 29% and 22% (2×) and 25%
- Decrease of 60 minute ipGTT blood glucose versus before treatment (feline diabetic subjects; [5]): 42% and 39% and 41% and 46%
- Blood glucose at 30 minutes in ipGTT (feline diabetic subjects; [6]): 269 mg/dL and 292 mg/dL and 278 mg/dL and 304 mg/dL
- Blood glucose at 60 minutes in ipGTT (feline diabetic subjects; [6]): 152 mg/dL and 164 mg/dL and 145 mg/dL and 147 mg/dL
- Dose of glargine insulin decreased to ([1]; #2 Cat, from 3 u. bid, secondary to low morning blood glucose): 2 units
- Morning blood glucose levels (prior to feeding) during treatment ([1]; individual diabetic cats #1-#5 on glargine insulin, 1.25 mg donepezil orally daily, 14 day period): 88 to 113 mg/dL and 105 to 128 mg/dL and 96 to 117 mg/dL
- Improvement of creatinine in six cats ([2]; donepezil 2.5 mg daily over 4 week period): approximately 56%
- Serum creatinine post treatment ([2]; individual cats 1-6, stage 3 or 4 renal disease, donepezil 2.5 mg daily for 4 weeks): 1.8 and 2.6 and 2.0 and 1.9 and 2.5 and 2.3
- Decrease of serum creatinine post versus pre treatment ([2]; individual cats 1-6, donepezil 2.5 mg daily for 4 weeks): 49% and 53% and 45% and 60% and 65% and 62%
- Gait (horse movements) [3, 7]: no abnormalities
- Lasting lameness or constitutional symptoms [3, 7]: No observable lasting lameness or constitutional symptoms
- Systemic symptoms after day #7 ([3]; first exposure, 3 horses): No systemic symptoms are noted
- All subjects appear normal by [3, 8]: ≤ 7 days
- Normal activity noted as early as [3, 8]: 5 days
- Warmth, posturing and trembling resolved by [3, 8]: ≤ 3 days
- Resolution of symptoms and normal movements completed by [3, 9]: ≤ 7 days
- Resolution of symptoms and normal movements observed at [3, 9]: 5 days
